Experiment: MALDI-TOF screening of Ni^2+ dependent hydrolysis in a combinatorial peptide library
Assay type: physicochemical
Details: Ni^2+ 2 mM, pH 8.2, 10 mM Tris, score=24/tm
In short: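 Peptide sublibraries CH3CO-Gly-Ala-Ser/Thr-X-His-Z-Lys-Phe-Leu-NH2 (1 mM total) incubated with 2 mM Ni^2+ in 10 mM Tris pH 8.2 at 37 °C and 45 °C. Hydrolysis products, plus loss of substrate signals, detected by MALDI-TOF at 2, 4, 6 and 8 h; residues X and Z scored and ranked.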

[1] = CH3CO-Gly-Ala-Thr-X-His-Z-Lys-Phe-Leu-NH2 library, 37° C.
[2] = CH3CO-Gly-Ala-Thr-X-His-Z-Lys-Phe-Leu-NH2 library, 45° C.
[3] = CH3CO-Gly-Ala-Ser-X-His-Z-Lys-Phe-Leu-NH2 library, 37° C.
[4] = CH3CO-Gly-Ala-Ser-X-His-Z-Lys-Phe-Leu-NH2 library, 45° C.

Substance | hydrolysis score from MALDI-TOF screening [1] | hydrolysis score from MALDI-TOF screening [2] | hydrolysis score from MALDI-TOF screening [3] | hydrolysis score from MALDI-TOF screening [4]
Ac-GATYHVKFL-NH2 [TYHV] | 0 (a score of 0 if no trace of the product of hydrolysis was seen after 8 hours of incubation) | 0 (a score of 0 if no trace of the product of hydrolysis was seen after 8 hours of incubation) |  | 
Ac-GATFHVKFL-NH2 [TFHV] | 0 (a score of 0 if no trace of the product of hydrolysis was seen after 8 hours of incubation) | 0 (a score of 0 if no trace of the product of hydrolysis was seen after 8 hours of incubation) |  | 
Ac-GASAHGKFL-NH2 [SAHG] |  |  | 0 (a score of 0 if no trace of the product of hydrolysis was seen after 8 hours of incubation) | 0 (a score of 0 if no trace of the product of hydrolysis was seen after 8 hours of incubation)
Ac-GATIHSKFL-NH2 [TIHS] | 0 (a score of 0 if no trace of the product of hydrolysis was seen after 8 hours of incubation) | 0 (a score of 0 if no trace of the product of hydrolysis was seen after 8 hours of incubation) |  | 
Ac-GASWHYKFL-NH2 [SWHY] |  |  | 0 (a score of 0 if no trace of the product of hydrolysis was seen after 8 hours of incubation) | 6 (a score of 6 for detection at 4 hours)
Ac-GASVHVKFL-NH2 [SVHV] |  |  | 0 (a score of 0 if no trace of the product of hydrolysis was seen after 8 hours of incubation) | 3 (a score of 3 for detection at 8 hours)
Ac-GASFHGKFL-NH2 [SFHG] |  |  | 0 (a score of 0 if no trace of the product of hydrolysis was seen after 8 hours of incubation) | 0 (a score of 0 if no trace of the product of hydrolysis was seen after 8 hours of incubation)
Ac-GASPHYKFL-NH2 [SPHY] |  |  | 0 (a score of 0 if no trace of the product of hydrolysis was seen after 8 hours of incubation) | 0 (a score of 0 if no trace of the product of hydrolysis was seen after 8 hours of incubation)
Ac-GASLHNKFL-NH2 [SLHN] |  |  | 0 (a score of 0 if no trace of the product of hydrolysis was seen after 8 hours of incubation) | 0 (a score of 0 if no trace of the product of hydrolysis was seen after 8 hours of incubation)
Ac-GATIHYKFL-NH2 [TIHY] | 0 (a score of 0 if no trace of the product of hydrolysis was seen after 8 hours of incubation) | 0 (a score of 0 if no trace of the product of hydrolysis was seen after 8 hours of incubation) |  | 
Ac-GATGHMKFL-NH2 [TGHM] | 0 (a score of 0 if no trace of the product of hydrolysis was seen after 8 hours of incubation) | 0 (a score of 0 if no trace of the product of hydrolysis was seen after 8 hours of incubation) |  | 
Ac-GATVHYKFL-NH2 [TVHY] | 0 (a score of 0 if no trace of the product of hydrolysis was seen after 8 hours of incubation) | 0 (a score of 0 if no trace of the product of hydrolysis was seen after 8 hours of incubation) |  | 
Ac-GASMHIKFL-NH2 [SMHI] |  |  | 4 (a score of 4 for detection at 6 hours) | 12 (a score of 12, if it was seen to be partially hydrolysed at 2 hours)
Ac-GATVHGKFL-NH2 [TVHG] | 0 (a score of 0 if no trace of the product of hydrolysis was seen after 8 hours of incubation) | 0 (a score of 0 if no trace of the product of hydrolysis was seen after 8 hours of incubation) |  | 
Ac-GATKHDKFL-NH2 [TKHD] | 0 (a score of 0 if no trace of the product of hydrolysis was seen after 8 hours of incubation) | 0 (a score of 0 if no trace of the product of hydrolysis was seen after 8 hours of incubation) |  | 
Ac-GASYHRKFL-NH2 [SYHR] |  |  | 4 (a score of 4 for detection at 6 hours) | 6 (a score of 6 for detection at 4 hours)
Ac-GASFHNKFL-NH2 [SFHN] |  |  | 0 (a score of 0 if no trace of the product of hydrolysis was seen after 8 hours of incubation) | 0 (a score of 0 if no trace of the product of hydrolysis was seen after 8 hours of incubation)
Ac-GASPHLKFL-NH2 [SPHL] |  |  | 0 (a score of 0 if no trace of the product of hydrolysis was seen after 8 hours of incubation) | 0 (a score of 0 if no trace of the product of hydrolysis was seen after 8 hours of incubation)
Ac-GATKHWKFL-NH2 [TKHW] | 6 (a score of 6 for detection at 4 hours) | 12 (a score of 12, if it was seen to be partially hydrolysed at 2 hours) |  | 

Substance | hydrolysis score from MALDI-TOF screening [1] | hydrolysis score from MALDI-TOF screening [2] | hydrolysis score from MALDI-TOF screening [3] | hydrolysis score from MALDI-TOF screening [4]
Ac-GATQHFKFL-NH2 [TQHF] | 0 (a score of 0 if no trace of the product of hydrolysis was seen after 8 hours of incubation) | 0 (a score of 0 if no trace of the product of hydrolysis was seen after 8 hours of incubation) |  | 
Ac-GASIHDKFL-NH2 [SIHD] |  |  | 0 (a score of 0 if no trace of the product of hydrolysis was seen after 8 hours of incubation) | 0 (a score of 0 if no trace of the product of hydrolysis was seen after 8 hours of incubation)
Ac-GASAHQKFL-NH2 [SAHQ] |  |  | 0 (a score of 0 if no trace of the product of hydrolysis was seen after 8 hours of incubation) | 0 (a score of 0 if no trace of the product of hydrolysis was seen after 8 hours of incubation)
Ac-GATHHWKFL-NH2 [THHW] | 12 (a score of 12, if it was seen to be partially hydrolysed at 2 hours) | 12 (a score of 12, if it was seen to be partially hydrolysed at 2 hours) |  | 
Ac-GASWHDKFL-NH2 [SWHD] |  |  | 0 (a score of 0 if no trace of the product of hydrolysis was seen after 8 hours of incubation) | 0 (a score of 0 if no trace of the product of hydrolysis was seen after 8 hours of incubation)
Ac-GASLHSKFL-NH2 [SLHS] |  |  | 0 (a score of 0 if no trace of the product of hydrolysis was seen after 8 hours of incubation) | 0 (a score of 0 if no trace of the product of hydrolysis was seen after 8 hours of incubation)
Ac-GASSHVKFL-NH2 [SSHV] |  |  | 3 (a score of 3 for detection at 8 hours) | 4 (a score of 4 for detection at 6 hours)
Ac-GASGHRKFL-NH2 [SGHR] |  |  | 3 (a score of 3 for detection at 8 hours) | 3 (a score of 3 for detection at 8 hours)
Ac-GATAHQKFL-NH2 [TAHQ] | 0 (a score of 0 if no trace of the product of hydrolysis was seen after 8 hours of incubation) | 0 (a score of 0 if no trace of the product of hydrolysis was seen after 8 hours of incubation) |  | 
Ac-GASAHYKFL-NH2 [SAHY] |  |  | 0 (a score of 0 if no trace of the product of hydrolysis was seen after 8 hours of incubation) | 3 (a score of 3 for detection at 8 hours)
Ac-GATTHRKFL-NH2 [TTHR] | 0 (a score of 0 if no trace of the product of hydrolysis was seen after 8 hours of incubation) | 3 (a score of 3 for detection at 8 hours) |  | 
Ac-GATWHGKFL-NH2 [TWHG] | 0 (a score of 0 if no trace of the product of hydrolysis was seen after 8 hours of incubation) | 0 (a score of 0 if no trace of the product of hydrolysis was seen after 8 hours of incubation) |  | 
Ac-GATHHGKFL-NH2 [THHG] | 0 (a score of 0 if no trace of the product of hydrolysis was seen after 8 hours of incubation) | 4 (a score of 4 for detection at 6 hours) |  | 
Ac-GATAHHKFL-NH2 [TAHH] | 0 (a score of 0 if no trace of the product of hydrolysis was seen after 8 hours of incubation) | 0 (a score of 0 if no trace of the product of hydrolysis was seen after 8 hours of incubation) |  | 
Ac-GATRHKKFL-NH2 [TRHK] | 6 (a score of 6 for detection at 4 hours) | 12 (a score of 12, if it was seen to be partially hydrolysed at 2 hours) |  | 
Ac-GATTHNKFL-NH2 [TTHN] | 0 (a score of 0 if no trace of the product of hydrolysis was seen after 8 hours of incubation) | 0 (a score of 0 if no trace of the product of hydrolysis was seen after 8 hours of incubation) |  | 
Ac-GASQHNKFL-NH2 [SQHN] |  |  | 0 (a score of 0 if no trace of the product of hydrolysis was seen after 8 hours of incubation) | 0 (a score of 0 if no trace of the product of hydrolysis was seen after 8 hours of incubation)
Ac-GATLHGKFL-NH2 [TLHG] | 0 (a score of 0 if no trace of the product of hydrolysis was seen after 8 hours of incubation) | 0 (a score of 0 if no trace of the product of hydrolysis was seen after 8 hours of incubation) |  | 

Reference: patent US8969516B2, “Method of hydrolysis of peptide bond” (priority 2006, dated 2015)
